{"source": "paper PMC5374441", "about": "(Scientific Reports, 2017)", "key": {"Ls-AChBP": {"molecular_target": "T1, Ls-AChBP (Lymnaea stagnalis, UniProt P58154)", "T1 construct": "made in house", "T1 sequence (P58154 20-229 limits assumed)": "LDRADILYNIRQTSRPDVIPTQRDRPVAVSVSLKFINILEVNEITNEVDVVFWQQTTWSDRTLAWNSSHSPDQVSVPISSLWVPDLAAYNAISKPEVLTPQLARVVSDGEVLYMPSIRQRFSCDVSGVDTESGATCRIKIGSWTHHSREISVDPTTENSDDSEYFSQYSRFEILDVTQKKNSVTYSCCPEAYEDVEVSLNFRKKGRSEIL", "experiment": "biochemical", "format": "binding", "conditions": "SEM"}, "Ac-AChBP": {"molecular_target": "T2, Ac-AChBP (Aplysia californica, UniProt Q8WSF8)", "T2 construct": "made in house", "T2 sequence (Q8WSF8 18-236 limits assumed)": "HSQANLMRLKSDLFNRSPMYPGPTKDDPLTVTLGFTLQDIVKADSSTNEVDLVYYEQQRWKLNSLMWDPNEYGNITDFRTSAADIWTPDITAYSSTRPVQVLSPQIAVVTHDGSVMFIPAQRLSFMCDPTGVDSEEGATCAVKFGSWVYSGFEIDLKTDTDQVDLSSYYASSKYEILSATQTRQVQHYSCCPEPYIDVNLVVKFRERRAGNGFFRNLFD", "experiment": "biochemical", "format": "binding", "conditions": "SEM"}, "human α7 nAChR": {"molecular_target": "human α7 nAChR (Homo sapiens, UniProt P36544)", "sequence (P36544 23-502 limits assumed)": "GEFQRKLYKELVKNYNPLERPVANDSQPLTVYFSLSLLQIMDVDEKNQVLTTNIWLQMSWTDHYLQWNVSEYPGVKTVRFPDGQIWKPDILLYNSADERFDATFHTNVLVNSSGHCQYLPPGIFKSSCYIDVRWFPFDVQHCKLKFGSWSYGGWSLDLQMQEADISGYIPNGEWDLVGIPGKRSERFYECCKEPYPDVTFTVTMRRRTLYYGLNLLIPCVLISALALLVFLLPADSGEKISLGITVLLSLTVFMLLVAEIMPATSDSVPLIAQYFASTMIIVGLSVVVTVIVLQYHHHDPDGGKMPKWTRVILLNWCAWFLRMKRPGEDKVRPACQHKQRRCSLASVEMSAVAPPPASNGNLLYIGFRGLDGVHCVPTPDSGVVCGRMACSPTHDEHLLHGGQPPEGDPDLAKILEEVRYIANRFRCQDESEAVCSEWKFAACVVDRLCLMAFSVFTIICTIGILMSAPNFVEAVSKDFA", "experiment": "cell-based", "conditions": "SEM"}, "human α3β4 nAChR": {"molecular_target": "human α3β4 nAChR (Homo sapiens, UniProt P30926+P32297)", "sequence (P32297 32-505 limits assumed)": "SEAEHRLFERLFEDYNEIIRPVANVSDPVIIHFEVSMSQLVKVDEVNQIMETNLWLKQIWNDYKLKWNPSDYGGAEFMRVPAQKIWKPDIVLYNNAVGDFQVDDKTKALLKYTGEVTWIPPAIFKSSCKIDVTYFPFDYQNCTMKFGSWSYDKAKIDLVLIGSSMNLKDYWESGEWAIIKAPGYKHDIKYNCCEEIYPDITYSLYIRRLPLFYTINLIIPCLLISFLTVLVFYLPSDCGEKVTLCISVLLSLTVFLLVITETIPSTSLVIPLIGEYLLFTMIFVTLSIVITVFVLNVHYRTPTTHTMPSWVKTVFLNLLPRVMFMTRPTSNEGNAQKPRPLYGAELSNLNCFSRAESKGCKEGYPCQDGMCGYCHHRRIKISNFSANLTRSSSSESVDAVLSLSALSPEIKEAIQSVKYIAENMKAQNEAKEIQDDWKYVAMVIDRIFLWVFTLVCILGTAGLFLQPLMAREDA", "sequence (P30926 22-498 limits assumed)": "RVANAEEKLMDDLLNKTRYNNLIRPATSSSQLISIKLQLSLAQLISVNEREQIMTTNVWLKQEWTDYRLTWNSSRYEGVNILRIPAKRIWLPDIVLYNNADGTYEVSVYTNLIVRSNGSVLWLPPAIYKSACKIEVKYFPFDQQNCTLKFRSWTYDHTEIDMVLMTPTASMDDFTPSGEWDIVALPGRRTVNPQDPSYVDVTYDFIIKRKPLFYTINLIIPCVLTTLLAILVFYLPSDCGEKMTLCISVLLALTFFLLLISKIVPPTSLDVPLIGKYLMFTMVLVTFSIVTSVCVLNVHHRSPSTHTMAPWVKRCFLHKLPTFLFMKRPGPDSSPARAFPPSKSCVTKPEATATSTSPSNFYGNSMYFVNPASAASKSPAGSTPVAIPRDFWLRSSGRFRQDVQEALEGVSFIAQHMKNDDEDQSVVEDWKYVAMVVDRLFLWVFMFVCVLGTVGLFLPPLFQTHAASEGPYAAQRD", "experiment": "cell-based"}}, "note": "Bridge positions count the residues as written; N and C are the ends. Peptide text beside a SMILES is read from it.", "data": [{"smiles": "CC[C@H](C)[C@@H]1NC(=O)[C@H](CC(N)=O)NC(=O)[C@@H]2CCCN2C(=O)[C@H](CC(N)=O)NC(=O)[C@H](CC(N)=O)NC(=O)[C@H](C(C)C)NC(=O)[C@H](CCCNC(=N)N)NC(=O)[C@@H]2CSSC[C@H](NC(=O)CNC(=O)[C@@H](N)CO)C(=O)N[C@@H](CSSC[C@@H](C(N)=O)NC1=O)C(=O)N[C@@H](CO)C(=O)N[C@@H](CC(N)=O)C(=O)N1CCC[C@H]1C(=O)N[C@@H](C)C(=O)N2", "note": "[LsIA] (H-SGCCSNPACRVNNPNIC-NH2; disulfide 3-9, 4-17)", "values": [{"measurement": "IC50", "setting": "Ls-AChBP", "value": "210 ± 40", "unit": "nM"}, {"measurement": "IC50", "setting": "Ac-AChBP", "value": "5.44 ± 0.35", "unit": "nM"}, {"measurement": "IC50", "setting": "human α7 nAChR", "value": "70 ± 7", "unit": "nM"}, {"measurement": "IC50", "setting": "human α3β4 nAChR", "value": "> 10000", "unit": "nM"}]}]}
